In ChEMBL document CHEMBL1142336, “Overcoming undesirable HERG potency of chemokine receptor antagonists using baseline lipophilicity relationships” (J Med Chem, 2008):

Key:
[1] = Lipophilicity, log D at pH 7.4; settings: buffer
[2] = molecular target: Voltage-gated inwardly rectifying potassium channel KCNH2 (Homo sapiens, UniProt Q12809); assay: Displacement of [3H]dofetilide from human recombinant ERG potassium channel expressed in HEK293 cells by patch clamp method
[3] = molecular target: C-C chemokine receptor type 8 (Homo sapiens, UniProt P51685); assay: Antagonist activity at CCR8 receptor; type: functional
Chain of C-C chemokine receptor type 8 (P51685 whole entry): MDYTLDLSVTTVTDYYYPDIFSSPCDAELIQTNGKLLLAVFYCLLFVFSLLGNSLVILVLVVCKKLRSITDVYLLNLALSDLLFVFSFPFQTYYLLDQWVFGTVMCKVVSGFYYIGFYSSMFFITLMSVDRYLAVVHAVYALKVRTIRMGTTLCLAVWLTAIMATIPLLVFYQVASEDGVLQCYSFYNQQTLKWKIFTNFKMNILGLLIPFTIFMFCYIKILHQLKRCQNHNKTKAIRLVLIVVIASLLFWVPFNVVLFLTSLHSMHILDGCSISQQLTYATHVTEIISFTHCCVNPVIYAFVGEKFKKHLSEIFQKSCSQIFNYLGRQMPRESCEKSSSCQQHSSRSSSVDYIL

Chain of Voltage-gated inwardly rectifying potassium channel KCNH2 (Q12809 whole entry): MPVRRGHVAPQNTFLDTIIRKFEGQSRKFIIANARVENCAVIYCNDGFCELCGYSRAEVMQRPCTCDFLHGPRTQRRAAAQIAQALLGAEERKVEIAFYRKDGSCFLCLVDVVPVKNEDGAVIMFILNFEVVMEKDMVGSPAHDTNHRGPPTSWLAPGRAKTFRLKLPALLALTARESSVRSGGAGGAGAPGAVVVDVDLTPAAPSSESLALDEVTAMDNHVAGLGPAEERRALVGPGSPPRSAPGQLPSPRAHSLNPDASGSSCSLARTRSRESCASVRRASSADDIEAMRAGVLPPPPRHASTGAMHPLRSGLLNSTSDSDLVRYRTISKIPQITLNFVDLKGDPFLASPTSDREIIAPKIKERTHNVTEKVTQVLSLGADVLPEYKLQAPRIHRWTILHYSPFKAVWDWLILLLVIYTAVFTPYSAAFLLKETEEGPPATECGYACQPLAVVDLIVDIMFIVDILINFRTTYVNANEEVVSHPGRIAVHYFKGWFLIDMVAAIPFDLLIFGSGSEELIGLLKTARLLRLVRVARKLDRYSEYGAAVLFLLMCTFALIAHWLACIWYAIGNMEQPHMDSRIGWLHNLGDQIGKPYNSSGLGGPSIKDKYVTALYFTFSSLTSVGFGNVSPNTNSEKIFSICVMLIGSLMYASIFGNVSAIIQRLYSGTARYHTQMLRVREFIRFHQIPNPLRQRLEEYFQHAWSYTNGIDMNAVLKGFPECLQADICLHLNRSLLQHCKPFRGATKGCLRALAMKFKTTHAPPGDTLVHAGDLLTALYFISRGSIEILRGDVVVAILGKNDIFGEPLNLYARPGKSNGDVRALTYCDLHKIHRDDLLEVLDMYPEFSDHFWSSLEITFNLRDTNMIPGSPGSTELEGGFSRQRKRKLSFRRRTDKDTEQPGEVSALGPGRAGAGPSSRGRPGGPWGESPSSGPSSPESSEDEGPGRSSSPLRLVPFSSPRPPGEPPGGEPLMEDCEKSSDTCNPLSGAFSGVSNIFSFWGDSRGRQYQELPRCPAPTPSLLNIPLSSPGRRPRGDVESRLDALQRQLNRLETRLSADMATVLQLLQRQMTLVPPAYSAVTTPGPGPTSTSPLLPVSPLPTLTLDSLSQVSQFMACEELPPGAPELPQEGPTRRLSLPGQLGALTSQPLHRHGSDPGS

logD [1] | IC50 [3] [nM] | SMILES | IC50 [2] [nM]
3.5 | – | O=C(c1ccc(Cl)cc1)N1CCC2(CCN(Cc3ccccc3Oc3ccccc3)CC2)CC1 | –
0.5 | 79.4 | COc1ccccc1Oc1ccccc1CN1CCC2(CC1)CCN(C(=O)c1cccc[n+]1[O-])CC2 | 1910
0.5 | 115 | COc1ccccc1Oc1ccccc1CN1CCC2(CC1)CCN(C(=O)c1cc[n+]([O-])cc1)CC2 | –
1.8 | 12 | COc1ccccc1Oc1ccccc1CN1CCC2(CC1)CCN(C(=O)c1ccncc1)CC2 | –
– | 33.1 | O=C(c1ccncc1)N1CCC2(CCN(Cc3ccccc3Oc3ccccc3)CC2)CC1 | –
3.5 | 12 | COc1ccccc1Oc1cccc(CN2CCC3(CC2)CCN(C(=O)c2ccc(Cl)cc2)CC3)c1 | –
1.2 | 166 | O=C(c1cc[n+]([O-])cc1)N1CCC2(CCN(Cc3cccc(Oc4ccccc4)c3)CC2)CC1 | –
2.4 | 27.5 | O=C(c1ccncn1)N1CCC2(CCN(Cc3cccc(Oc4ccccc4)c3)CC2)CC1 | –
1.55 | – | O=C(c1ccc(O)cc1OC[C@@H](O)CN1CCC2(CC1)Cc1cc(Cl)ccc1O2)N1C[C@H](O)CO1 | 25.1
